Earlier results in patent US11017689B2, “Very low nicotine cigarette blended with very low THC cannabis” (priority 2018, dated 2021).

Columns and labels:
[1] = nicotine in tobacco smoke, inhaled
[2] = tested on: nicotine self-administration; details: rats
[3] = tested on: nicotinic acetylcholine receptors (nAChRs)
[4] = administered orally to rats

Row | Compound | time from inhaling the smoke until nicotine reaches the brain [1] | dose-effect function on nicotine self-administration [2] | reduction of nicotine infusions per session ([2]; 2.0 mg/kg of anabasine) | increase in nicotine self-administration ([2]; pretreatment with 0.02 mg/kg anabasine) [%] | affinity for nicotinic acetylcholine receptors (nAChRs) [3] | reduction of nicotine self-administration ([2]; pretreatment with 2.0 mg/kg anatabine) | elimination half-life relative to that of nicotine [4] [fold]
1 | CN1CCCC1c1cccnc1 (centres unmarked) [nicotine] | approximately ten |  |  |  |  |  | 
2 | c1cncc([C@@H]2CCCCN2)c1 [anabasine] |  | biphasic | over 50% | 25 | affinity |  | 
3 | C1=CCC(c2cccnc2)NC1 (centres unmarked) [anatabine] |  |  |  |  | affinity | nearly half | 2 to 2.5
